# Results: patent publication US20190018003A1, “TUMOR DISCRIMINATION METHOD, DIAGNOSTIC AGENT FOR TUMOR, AND SENSITIZER FOR TUMOR DIAGNOSIS” (TOTO LTD., priority 2017, published 2019)
# What was measured:
# Assay type in all cases: cell-based, human
# [1] = system: UM-UC-3 urinary bladder cancer cells; experiment: Fluorescence enhancement in UM-UC-3 cells by separate administration of fluorescent dye (ALA) and particles, fluorescence microscope; details: Example 5, ALA 2 mmol/l, particles 0.001 w/v %, immediately after observation light irradiation
# Procedure: UM-UC-3 cells (UMUC3, ATCC CRL-1749) were prepared. This cell line was subcultured in an E-MEM medium (ATCC-formulated Eagle's Minimum Essential Medium (ATCC), 10 v/v % FBS (Life Technologies)). The cultured cells which reached a logarithmic growth phase 3 days or 4 days later were peeled off with Trypsin/EDTA (Thermo Fisher Scientific) and, after the reaction was terminated in an E-MEM medium, centrifuged. The cell pellet obtained was suspended in an E-MEM medium. The cell suspension was subjected to measurement of cell density, inoculated onto a 6-well plate at a density of 3.6×10^4 cells/2 ml/well, and cultured for 3 days. […]
# Evaluation was performed as follows. The medium of the UM-UC-3 cells on a 6-well plate, obtained in Example 3, was removed by an aspirator, and evaluation thereof was performed under conditions where PBS (−) and HBSS (−) in Example 4 were changed to the E-MEM medium and the MEM medium (no glutamine and no phenol red (Thermo Fisher Scientific), respectively, and the solution was used for detection of fluorescence.
# Detection of fluorescence was performed in the same manner as in Example 4 by using an inverted fluorescence microscope (ECLIPSE Ti-E, Nikon). A fluorescence intensity was calculated by subtracting luminance corresponding to dark noise from the image acquired and thereafter obtaining average luminance of all pixels where fluorescence was acquired. […]
# [2] = system: WI-38 immortalized normal cells; experiment: Discrimination test, fluorescence in WI-38 immortalized normal cells after ALA and particles (separate plates); details: Example 10; WI-38 cell line; ALA 2 mmol/l, particles 0.001 w/v %
# Procedure: Immortalized cell line WI-38 cells (WI-38 VA13 sub 2 RA, JCRB9057) of normal diploid fibroblast cell line WI-38 were prepared. This cell line was subcultured in an MEM medium (MEM, GlutaMAX™ supplement (Thermo Fisher Scientific), 10 v/v % FBS (Thermo Fischer Scientific)). The cultured cells which reached a logarithmic growth phase 3 days or 4 days later were peeled off with Trypsin/EDTA (Thermo Fisher Scientific) and, after the reaction was terminated in an MEM medium, centrifuged. The cell pellet obtained was suspended in an MEM medium. The cell suspension was subjected to measurement of cell density, inoculated onto a 6-well plate at a density of 5.0×10^4 cells/2 ml/well, and cultured for 3 days.
# An aqueous ALA solution (50 mmol/l) was mixed into an MEM medium (MEM, GlutaMAX™ supplement (Thermo Fisher Scientific)) to form a 2 mmol/l ALA solution. Further, an aqueous solution of light scattering particles (2) (ii) was mixed into an MEM medium to form a 0.001 w/v % light scattering particle solution.
# The media of the T24 cells and the WI-38 cells on 6-well plates, obtained in Example 3, were respectively removed by an aspirator, and detection was performed in the same manner as in Example 4, and relative fluorescence intensities were calculated.
# [3] = system: T24 urinary bladder cancer cells; experiment: Co-culture in the same visual field, fluorescence of T24 cell region; details: Example 11, T24 cell line, ALA 2 mmol/l, particles 0.001 w/v %
# From the text: Co-culture pertaining to the present example for having the tumor cells and the immortalized normal cells exist in the same visual field will be described with reference to FIGS. 1A and 1B. For the co-culture, there was used CytoSelect™ 24-Well Cell Co-Culture System (manufactured by COSMO BIO). The T24 cell line was subcultured in an MEM medium (MEM, GlutaMAX™ supplement (Thermo Fisher Scientific), 10 v/v % FBS (Thermo Fisher Scientific)). The cultured cells which reached a logarithmic growth phase 3 days or 4 days later were peeled off with Trypsin/EDTA (Thermo Fisher Scientific) and, after the reaction was terminated in an MEM medium, centrifuged. The cell pellet obtained was suspended in an MEM medium. The cell suspension was subjected to measurement of cell density and inoculated onto a well at a density of 4.4×10^4 cells/0.225 ml/well, the well having an insert 2 of an 8 mm diameter disposed for preparing a cell-free region therein, and cultured for 2 days to form a monolayer in region 3 around the insert 2.
# WI-38 cells were subcultured in an MEM medium. […]
# Detection of fluorescence was performed in the same manner as in Example 4 by using an inverted fluorescence microscope (ECLIPSE Ti-E, Nikon). Images having a visual field of 3300 μm (width)×2200 μm (length) were obtained, and relative fluorescence intensities were calculated in the same manner as in Example 5.
structure (smiles),measurement,setting,value
"NCC(=O)CCC(=O)O [fluorescent dye, 5-aminolevulinic acid]",Relative fluorescence intensity,[1],1.0
same,Relative fluorescence intensity,[2],0.7
same,Relative fluorescence intensity,[3],1.6
